Laboratory results published in patent US10851073B2, “Protein tyrosine phosphatase inhibitors and methods of use thereof” (Calico Life Sciences LLC, priority 2019, dated 2020).

System: B16F10 mouse melanoma cells
Assay: B16F10 IFNγ-induced cellular growth inhibition assay
Format: cell-based
Conditions: B16-F10, with 0.5 ng/mL IFNγ, read-out: B16F10 GI IC50
Procedure: Example 229: B16F10 IFNγ-Induced Cellular Growth Inhibition Assay B16F10 mouse melanoma cells (ATCC Cat^# CRL-6475, Manassas, Va.) were seeded at a density of 500 cells per well in a 384-well clear bottom plate (Corning Cat^#3765, Corning, N.Y.) in 25 μL total volume of DMEM+10% FBS (Sigma Cat^# D6429 and Sigma Cat^# F4135, St. Louis, Mo.). Cells were allowed to adhere overnight at 37° C.+5% CO2. On the following day, 12.5 μL of mouse IFNγ (RD systems Cat^#485-MI/CF, Minneapolis, Minn.) was added to half of the plate (columns 13-24) at a concentration of 2 ng/mL for a final assay concentration of 0.5 ng/mL of IFNγ. Media only (12.5 μL of DMEM+10% FBS) was added to the remainder of the plate (columns 1-12). Next, compounds resuspended in DMSO (Sigma Cat^# D2650) at 100 mM were diluted in semi-log dilutions in DMSO ranging from 100 mM to 0.001 mM and DMSO only controls were included. The compound/DMSO dilutions were further diluted 1:250 in DMEM+10% FBS, and 12.5 μL of these dilutions were added in triplicates to cells of both treatment arms (with and without IFNγ). Final compound concentrations ranged from 100 μM to 0.001 μM with a final DMSO concentration of 0.1%. Compounds were only dosed in the inner 240 wells, avoiding the outer 2-well perimeter of the plate to minim/ze edge effects. Finally, the plate was loaded into an IncuCyte® S3 Live Cell Analysis System (Essen Bioscience-Sartorius, Ann Arbor, Mich.) maintained in a 37° C.+5% CO2 incubator, allowed to equilibrate for 2 hours, and imaged every 6 hours for 5 days. Confluence over time for compound dilutions in the presence and absence of IFNγ was measured. Growth inhibition values were obtained when the “DMSO/no IFNγ” control reached confluence >95%. At these time points, for each compound the percent growth inhibition at every compound dose level was calculated relative to the “DMSO/with IFNγ” control and used to determine the IC50.

| SMILES | IC50 |
| --- | --- |
| O=C1CN(c2c(O)cc3c(c2F)CC(NCC2CC2)CC3)S(=O)(=O)N1 (stereo not shown) [Compound 103, 5-{7-[(cyclopropylmethyl)amino]-1-fluoro-3-hydroxy-5,6,7,8-tetrahydronaphthalen-2-yl}-1λ^6,2,5-thiadiazolidine-1,1,3-trione] | 1 to 10 µM |
| O=C1CN(c2c(O)cc3c(c2F)CC(NCCOC(F)(F)F)CC3)S(=O)(=O)N1 (stereo not shown) [Compound 169, 5-(1-fluoro-3-hydroxy-7-{[2-(trifluoromethoxy)ethyl]amino}-5,6,7,8-tetrahydronaphthalen-2-yl)-1λ^6,2,5-thiadiazolidine-1,1,3-trione] | 10 to 100 µM |
| N[C@H](CCC1CCCCC1)C(=O)N1CCc2cc(O)c(N3CC(=O)NS3(=O)=O)c(F)c2C1 [Compound 250, 5-{2-[(2R)-2-amino-4-cyclohexylbutanoyl]-8-fluoro-6-hydroxy-1,2,3,4-tetrahydroisoquinolin-7-yl}-1λ^6,2,5-thiadiazolidine-1,1,3-trione] | > 100 µM |
| CC(C)OCCCN1CCc2cc(O)c(N3CC(=O)NS3(=O)=O)c(F)c2C1 [Compound 251, 5-(8-fluoro-6-hydroxy-2-{3-[(propan-2-yl)oxy]propyl}-1,2,3,4-tetrahydroisoquinolin-7-yl)-1λ^6,2,5-thiadiazolidine-1,1,3-trione] | 1 to 10 µM |
| Cn1cc(CCN2CCc3cc(O)c(N4CC(=O)NS4(=O)=O)c(F)c3C2)cn1 [Compound 252, 5-{8-fluoro-6-hydroxy-2-[2-(1-methyl-1H-pyrazol-4-yl)ethyl]-1,2,3,4-tetrahydroisoquinolin-7-yl}-1λ^6,2,5-thiadiazolidine-1,1,3-trione] | 10 to 100 µM |
| Cc1nn(CC(F)F)c(C)c1CCN1CCc2cc(O)c(N3CC(=O)NS3(=O)=O)c(F)c2C1 [Compound 253, 5-(2-{2-[1-(2,2-difluoroethyl)-3,5-dimethyl-1H-pyrazol-4-yl]ethyl}-8-fluoro-6-hydroxy-1,2,3,4-tetrahydroisoquinolin-7-yl)-1λ^6,2,5-thiadiazolidine-1,1,3-trione] | 1 to 10 µM |
| Cc1c(CCN2CCc3cc(O)c(N4CC(=O)NS4(=O)=O)c(F)c3C2)cnn1C [Compound 257, 5-{2-[2-(1,5-dimethyl-1H-pyrazol-4-yl)ethyl]-8-fluoro-6-hydroxy-1,2,3,4-tetrahydroisoquinolin-7-yl}-1λ^6,2,5-thiadiazolidine-1,1,3-trione] | 1 to 10 µM |
| O=C1CN(c2c(O)cc3c(c2F)CN(C(=O)NCC2CC2)CC3)S(=O)(=O)N1 [Compound 258, N-(cyclopropylmethyl)-8-fluoro-6-hydroxy-7-(1,1,4-trioxo-1λ^6,2,5-thiadiazolidin-2-yl)-3,4-dihydroisoquinoline-2(1H)-carboxamide] | 1 to 10 µM |
| O=C1CN(c2c(O)cc3c(c2F)CN(C(=O)NCC2CC(F)(F)C2)CC3)S(=O)(=O)N1 [Compound 262, N-[(3,3-difluorocyclobutyl)methyl]-8-fluoro-6-hydroxy-7-(1,1,4-trioxo-1λ^6,2,5-thiadiazolidin-2-yl)-3,4-dihydroisoquinoline-2(1H)-carboxamide] | 10 to 100 µM |
| CCn1nc(C)c(CCN2CCc3cc(O)c(N4CC(=O)NS4(=O)=O)c(F)c3C2)c1C [Compound 276, 5-{2-[2-(1-ethyl-3,5-dimethyl-1H-pyrazol-4-yl)ethyl]-8-fluoro-6-hydroxy-1,2,3,4-tetrahydroisoquinolin-7-yl}-1λ^6,2,5-thiadiazolidine-1,1,3-trione] | 1 to 10 µM |
| O=C1CN(c2c(O)cc3c(c2F)CN(CCCC2CCCCC2)CC3)S(=O)(=O)N1 [Compound 286, 5-[2-(3-cyclohexylpropyl)-8-fluoro-6-hydroxy-1,2,3,4-tetrahydroisoquinolin-7-yl]-1λ^6,2,5-thiadiazolidine-1,1,3-trione] | 1 to 10 µM |
| COCCCCN1CCc2cc(O)c(N3CC(=O)NS3(=O)=O)c(F)c2C1 [Compound 293, 5-[8-fluoro-6-hydroxy-2-(4-methoxybutyl)-1,2,3,4-tetrahydroisoquinolin-7-yl]-1λ^6,2,5-thiadiazolidine-1,1,3-trione] | 1 to 10 µM |
| Cc1noc(C)c1CCN1Cc2c(cc(O)c(N3CC(=O)NS3(=O)=O)c2F)C(F)(F)C1 [Compound 306, 5-{2-[2-(3,5-dimethyl-1,2-oxazol-4-yl)ethyl]-4,4,8-trifluoro-6-hydroxy-1,2,3,4-tetrahydroisoquinolin-7-yl}-1λ^6,2,5-thiadiazolidine-1,1,3-trione] | > 100 µM |

Same assay, conditions: B16-F10, with 0.5 ng/mL IFNγ, read-out: B16F10 Growth Inhibition IC50

| SMILES | IC50 |
| --- | --- |
| CC(C)CCNc1ccc2cc(O)c(N3CC(=O)NS3(=O)=O)c(F)c2c1 [Compound V] | 3.2 µM |
| CC(C)(C)CCNc1ccc2cc(O)c(N3CC(=O)NS3(=O)=O)c(F)c2c1 [Compound W] | 4.1 µM |
| O=C1CN(c2c(O)cc3ccc(NCCC4CC4)cc3c2F)S(=O)(=O)N1 [Compound X] | 4.1 µM |

Target: T1, His tagged PTPN2 (TC45) protein (Homo sapiens, UniProt P17706)
T1 construct: made in house
T1 sequence (P17706 with tags, fused parts or gaps isoform P17706-2): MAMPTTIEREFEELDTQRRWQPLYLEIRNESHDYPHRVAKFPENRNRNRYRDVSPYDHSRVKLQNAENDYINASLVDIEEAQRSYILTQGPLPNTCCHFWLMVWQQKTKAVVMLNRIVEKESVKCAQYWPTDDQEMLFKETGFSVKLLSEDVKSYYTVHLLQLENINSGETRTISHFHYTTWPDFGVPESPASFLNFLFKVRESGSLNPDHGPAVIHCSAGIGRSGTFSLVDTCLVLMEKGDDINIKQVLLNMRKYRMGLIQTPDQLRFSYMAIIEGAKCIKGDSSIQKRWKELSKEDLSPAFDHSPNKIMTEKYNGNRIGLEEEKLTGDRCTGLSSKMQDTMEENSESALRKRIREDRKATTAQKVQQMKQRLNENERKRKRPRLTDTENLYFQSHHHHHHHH
Assay: Mobility shift assay used to determine potency of PTPN2 inhibitors
Format: biochemical
Conditions: enzyme 0.5 nM, substrate 2 μM; read-out: PTPN2 MSA IC50
Procedure: Example 227: Mobility Shift Assay Used to Determine Potency of PTPN2 Inhibitors
Compound activity was determined using in house His tagged PTPN2 (TC45) protein (SEQ ID NO: 1) in an in vitro enzymatic reaction. The enzymatic assay used to determine activity was a mobility shift assay using a LabChip EZ Reader by Caliper Life Sciences. The enzymatic reaction was carried out in assay buffer (50 mM HEPES pH 7.5, 1 mM EGTA, 10 mM EDTA, 0.01% Tween® 20, and 2 mM DTT). The compounds were dispensed on a white 384 well ProxiPlate™ (PerkinElmer Catalog #6008289) plate using the Labcyte Echo at varying concentrations (12 point, 1:3 dilution). The enzyme (at 0.5 nM) was incubated with compound for 10 minutes at room temperature. Then the substrate (phosphorylated insulin receptor probe sequence: ((OG488)-(NH—CH2—CH2—O—CH2—CH2—O—CH2—CO)-T-R-D-I-(PY)-E-T-D-Y-Y-R-K-K-NH2) (SEQ ID NO: 2) was added at 2 μM to the plates and incubated for another 10 minutes at room temperature. Finally, a quench solution (water and 4-bromo-3-(2-oxo-2-propoxyethoxy)-5-(3-{[1-(phenylmethanesulfonyl)piperidin-4-yl]amino}phenyl)thiophene-2-carboxylic acid) was added to the plates, which were then run on the EZ Reader (excitation 488 nm, emission 530 nm) to measure % conversion (the amount of phosphorylated substrate which was de-phosphorylated by PTPN2). […] The % inhibition was then used to calculate the IC50 values.

| SMILES | IC50 |
| --- | --- |
| O=C1CN(c2c(O)cc3c(c2F)CC(NCC2CC2)CC3)S(=O)(=O)N1 (stereo not shown) [Compound 103, 5-{7-[(cyclopropylmethyl)amino]-1-fluoro-3-hydroxy-5,6,7,8-tetrahydronaphthalen-2-yl}-1λ^6,2,5-thiadiazolidine-1,1,3-trione] | 0.01 to 0.1 µM |
| COC(CCNC1CCc2cc(O)c(N3CC(=O)NS3(=O)=O)c(F)c2C1)C(F)(F)F (stereo not shown) [Compound 152, 5-{1-fluoro-3-hydroxy-7-[(4,4,4-trifluoro-3-methoxybutyl)amino]-5,6,7,8-tetrahydronaphthalen-2-yl}-1λ^6,2,5-thiadiazolidine-1,1,3-trione] | 0.001 to 0.01 µM |
| O=C1CN(c2c(O)cc3c(c2F)CC(NCCOC(F)(F)F)CC3)S(=O)(=O)N1 (stereo not shown) [Compound 169, 5-(1-fluoro-3-hydroxy-7-{[2-(trifluoromethoxy)ethyl]amino}-5,6,7,8-tetrahydronaphthalen-2-yl)-1λ^6,2,5-thiadiazolidine-1,1,3-trione] | 0.01 to 0.1 µM |
| O=C1CN(c2c(O)cc3c(c2F)CN(C(=O)NCC2CCCO2)CC3)S(=O)(=O)N1 (stereo not shown) [Compound 263, 8-fluoro-6-hydroxy-N-[(oxolan-2-yl)methyl]-7-(1,1,4-trioxo-1λ^6,2,5-thiadiazolidin-2-yl)-3,4-dihydroisoquinoline-2(1H)-carboxamide] | 0.01 to 0.1 µM |
| NCC1Cc2cc(O)c(N3CC(=O)NS3(=O)=O)c(F)c2C1 (stereo not shown) [Compound 267, 5-[2-(aminomethyl)-4-fluoro-6-hydroxy-2,3-dihydro-1H-inden-5-yl]-1λ^6,2,5-thiadiazolidine-1,1,3-trione 2,2,2-trifluoroacetate] | 0.01 to 0.1 µM |
| CC(C)CCCC1CCc2cc(O)c(N3CC(=O)NS3(=O)=O)c(F)c2C1 (stereo not shown) [Compound 323, 5-[1-fluoro-3-hydroxy-7-(4-methylpentyl)-5,6,7,8-tetrahydronaphthalen-2-yl]-1λ^6,2,5-thiadiazolidine-1,1,3-trione] | 0.001 to 0.01 µM |
